Here are results for 37 compounds from patent US20100029619A1, “FUSED HETEROCYCLIC COMPOUND” (TAKEDA PHARMACEUTICAL COMPANY LIMTED, priority 2006, published 2010).

What is called melting point is the temperature, or range, at which the solid turns liquid.

As to `CC(C)(CCC(=O)O)c1ccc(C(=O)Nc2cn3cc(Cl)ccc3n2)cc1` [Example 118, 4-(4-{[(6-chloroimidazo[1,2-a]pyridin-2-yl)amino]carbonyl}phenyl)-4-methylpentanoic acid], the melting point was 309 to 311 °C (dec.).

On to `CC(=O)NCC(C)(C)c1ccc(C(=O)Nc2cn3cc(Cl)ccc3n2)cc1` [Example 122, 4-[2-(acetylamino)-1,1-dimethylethyl]-N-(6-chloroimidazo[1,2-a]pyridin-2-yl)benzamide], for which the melting point was 220 to 222 °C.

Compound `CCC(=O)NCC(C)(C)c1ccc(C(=O)Nc2cn3cc(Cl)ccc3n2)cc1` [Example 126, N-(6-chloroimidazo[1,2-a]pyridin-2-yl)-4-[1,1-dimethyl-2-(propionylamino)ethyl]benzamide] showed a melting point of 225 to 227 °C.

On to `CCNC(=O)C(C)(C)c1ccc(C(=O)Nc2cn3cc(Cl)ccc3n2)cc1` [Example 127, N-(6-chloroimidazo[1,2-a]pyridin-2-yl)-4-[2-(ethylamino)-1,1-dimethyl-2-oxoethyl]benzamide], for which the melting point fell in the range of 228 to 230 °C.

The compound `CNC(=O)CC(C)(C)c1ccc(C(=O)Nc2cn3cc(Cl)ccc3n2)cc1` [Example 128, N-(6-chloroimidazo[1,2-a]pyridin-2-yl)-4-[1,1-dimethyl-3-(methylamino)-3-oxopropyl]benzamide] registered a melting point of 228 to 230 °C.

Consider `CCC(=O)NC(C)(C)c1ccc(C(=O)Nc2cn3cc(Cl)ccc3n2)cc1` [Example 129, N-(6-chloroimidazo[1,2-a]pyridin-2-yl)-4-[1-methyl-1-(propionylamino)ethyl]benzamide], for which the melting point was 249 to 252 °C.

`CC(C)(C#N)c1ccc(C(=O)Nc2cn3cc(-n4ccnc4)ccc3n2)cc1` [Example 130, 4-(1-cyano-1-methylethyl)-N-[6-(1H-imidazol-1-yl)imidazo[1,2-a]pyridin-2-yl]benzamide] showed a melting point of 241 to 244 °C.

The compound `CCN(c1ccc(C(=O)Nc2cn3cc(Cl)ccc3n2)cc1)S(C)(=O)=O` [Example 131, N-(6-chloroimidazo[1,2-a]pyridin-2-yl)-4-[ethyl(methylsulfonyl)amino]benzamide] registered a melting point of 245 to 247 °C.

`CC(=O)NCC(C)(C)c1ccc(C(=O)Nc2cn3cc(-n4ccnc4)ccc3n2)cc1` [Example 135, 4-[2-(acetylamino)-1,1-dimethylethyl]-N-[6-(1H-imidazol-1-yl)imidazo[1,2-a]pyridin-2-yl]benzamide] had a melting point of 242 to 244 °C.

Compound `CCCNCC(C)(C)c1ccc(C(=O)Nc2cn3cc(-n4ccnc4)ccc3n2)cc1` [Example 136, 4-[1,1-dimethyl-2-(propylamino)ethyl]-N-[6-(1H-imidazol-1-yl)imidazo[1,2-a]pyridin-2-yl]benzamide] returned a melting point of 162 to 164 °C.

Consider `CC(C)(C)c1ccc(C(=O)Nc2cn3nc(-n4cnc(CC#N)c4)ccc3n2)cc1` [Example 142, 4-tert-butyl-N-{6-[4-(cyanomethyl)-1H-imidazol-1-yl]imidazo[1,2-b]pyridazin-2-yl}benzamide], for which the melting point was 314 to 316 °C (dec.).

In the case of `Cc1cn(-c2ccc3nc(NC(=O)c4ccc(C(C)(C)C)cc4)cn3n2)c(C)n1` [Example 143, 4-tert-butyl-N-[6-(2,4-dimethyl-1H-imidazol-1-yl)imidazo[1,2-b]pyridazin-2-yl]benzamide], the melting point is 254 to 255 °C.

`CCc1nc(C)cn1-c1ccc2nc(NC(=O)c3ccc(C(C)(C)C)cc3)cn2n1` [Example 144, 4-tert-butyl-N-[6-(2-ethyl-4-methyl-1H-imidazol-1-yl)imidazo[1,2-b]pyridazin-2-yl]benzamide] returned a melting point of 220 to 221 °C.

On to `CC(C)(C)c1ccc(C(=O)Nc2cn3nc(-n4cnc(CO)c4)ccc3n2)cc1` [Example 145, 4-tert-butyl-N-{6-[4-(hydroxymethyl)-1H-imidazol-1-yl]imidazo[1,2-b]pyridazin-2-yl}benzamide], for which the melting point was 298 to 301 °C.

In turn, `CC(C)(C)c1ccc(C(=O)Nc2cn3nc(-n4cnc(Cl)c4Cl)ccc3n2)cc1` [Example 146, 4-tert-butyl-N-[6-(4,5-dichloro-1H-imidazol-1-yl)imidazo[1,2-b]pyridazin-2-yl]benzamide] registered a melting point of 281 to 282 °C.

As for `CC(C)(C)c1ccc(C(=O)Nc2cn3nc(-n4cnc(Br)c4)ccc3n2)cc1` [Example 147, N-[6-(4-bromo-1H-imidazol-1-yl)imidazo[1,2-b]pyridazin-2-yl]-4-tert-butylbenzamide], the melting point lay in the range of 306 to 307 °C.

Turning to `CC(C)(C)c1ccc(C(=O)Nc2cn3nc(N)ccc3n2)cc1` [Example 148, N-(6-aminoimidazo[1,2-b]pyridazin-2-yl)-4-tert-butylbenzamide], the melting point was in the range of 267 to 268 °C.

Compound `CC(=O)c1ccc2nc(NC(=O)c3ccc(C(C)(C)C)cc3)cn2n1` [Example 151, N-(6-acetylimidazo[1,2-b]pyridazin-2-yl)-4-tert-butylbenzamide] yielded a melting point of 237 to 238 °C.

Take `CC(C)(C)c1ccc(C(=O)Nc2cn3nc(NCc4ccncc4)ccc3n2)cc1` [Example 159, 4-tert-butyl-N-{6-[(pyridin-4-ylmethyl)amino]imidazo[1,2-b]pyridazin-2-yl}benzamide]: the melting point lay within 222 to 223 °C.

Consider `CC(C)(C)c1ccc(C(=O)Nc2cn3nc(NCc4cccnc4)ccc3n2)cc1` [Example 160, 4-tert-butyl-N-{6-[(pyridin-3-ylmethyl)amino]imidazo[1,2-b]pyridazin-2-yl}benzamide], for which the melting point was 232 to 233 °C.

Take `CC(C)(C)c1ccc(C(=O)Nc2cn3nc(NCc4ccccn4)ccc3n2)cc1` [Example 161, 4-tert-butyl-N-{6-[(pyridin-2-ylmethyl)amino]imidazo[1,2-b]pyridazin-2-yl}benzamide]: the melting point was 196 to 197 °C.

`CC(C)(C)c1ccc(C(=O)Nc2cn3nc(NCCc4ccncc4)ccc3n2)cc1` [Example 162, 4-tert-butyl-N-{6-[(2-pyridin-4-ylethyl)amino]imidazo[1,2-b]pyridazin-2-yl}benzamide] came in with a melting point of 279 °C.

Compound `CC(C)(C)c1ccc(C(=O)Nc2cn3nc(NCCc4cccnc4)ccc3n2)cc1` [Example 163, 4-tert-butyl-N-{6-[(2-pyridin-3-ylethyl)amino]imidazo[1,2-b]pyridazin-2-yl}benzamide] came in with a melting point of 231 °C.

In turn, `CC(C)(C)c1ccc(C(=O)Nc2cn3nc(NC4CCCCC4)ccc3n2)cc1` [Example 164, 4-tert-butyl-N-[6-(cyclohexylamino)imidazo[1,2-b]pyridazin-2-yl]benzamide] showed a melting point of 296 to 297 °C.

For `CC(C)(C)c1ccc(C(=O)Nc2cn3nc(NC4CCCC4)ccc3n2)cc1` [Example 165, 4-tert-butyl-N-[6-(cyclopentylamino)imidazo[1,2-b]pyridazin-2-yl]benzamide], the melting point lay in the range of 272 to 273 °C.

The compound `CC(C)(C)c1ccc(C(=O)Nc2cn3nc(NC4CC4)ccc3n2)cc1` [Example 166, 4-tert-butyl-N-[6-(cyclopropylamino)imidazo[1,2-b]pyridazin-2-yl]benzamide] showed a melting point of 274 to 275 °C.

Take `CCCNc1ccc2nc(NC(=O)c3ccc(C(C)(C)C)cc3)cn2n1` [Example 167, 4-tert-butyl-N-[6-(propylamino)imidazo[1,2-b]pyridazin-2-yl]benzamide]: the melting point lay in the range of 243 to 244 °C.

Compound `CN1CCC(Nc2ccc3nc(NC(=O)c4ccc(C(C)(C)C)cc4)cn3n2)CC1` [Example 168, 4-tert-butyl-N-{6-[(1-methylpiperidin-4-yl)amino]imidazo[1,2-b]pyridazin-2-yl}benzamide] gave a melting point of 275 to 277 °C.

`CC(C)(C)c1ccc(C(=O)Nc2cn3nc(NCCO)ccc3n2)cc1` [Example 169, 4-tert-butyl-N-{6-[(2-hydroxyethyl)amino]imidazo[1,2-b]pyridazin-2-yl}benzamide] yielded a melting point of 231 to 233 °C.

Turning to `CC(C)(C)c1ccc(C(=O)Nc2cn3nc(NC4CCNC4)ccc3n2)cc1` (stereo not shown) [Example 170, 4-tert-butyl-N-{6-[(pyrrolidin-3-yl)amino]imidazo[1,2-b]pyridazin-2-yl}benzamide], the melting point was 264 to 265 °C.

As for `CC(C)(C)c1ccc(C(=O)Nc2cn3nc(NC4CCNCC4)ccc3n2)cc1` [Example 171, 4-tert-butyl-N-[6-(piperidin-4-ylamino)imidazo[1,2-b]pyridazin-2-yl]benzamide], the melting point was 242 to 243 °C.

`CNCCNc1ccc2nc(NC(=O)c3ccc(C(C)(C)C)cc3)cn2n1` [Example 172, 4-tert-butyl-N-(6-{[2-(methylamino)ethyl]amino}imidazo[1,2-b]pyridazin-2-yl)benzamide] had a melting point of 200 to 201 °C.

As to `Cn1cc(-c2ccc3nc(NC(=O)c4ccc(C(C)(C)C)cc4)cn3n2)cn1` [Example 173, 4-tert-butyl-N-[6-(1-methyl-1H-pyrazol-4-yl)imidazo[1,2-b]pyridazin-2-yl]benzamide], the melting point is 245 to 246 °C.

On to `CC(C)(C)c1ccc(C(=O)Nc2cn3nc(-c4cn[nH]c4)ccc3n2)cc1` [Example 174, 4-tert-butyl-N-[6-(1H-pyrazol-4-yl)imidazo[1,2-b]pyridazin-2-yl]benzamide], for which the melting point is 358 to 362 °C (dec.).

For `Cn1cc(-c2ccc3nc(NC(=O)c4ccc(C(C)(C)C)nc4)cn3n2)cn1` [Example 176, 6-tert-butyl-N-[6-(1-methyl-1H-pyrazol-4-yl)imidazo[1,2-b]pyridazin-2-yl]nicotinamide], the melting point was in the range of 251 to 252 °C.

In the case of `CC(C)(C)c1ccc(C(=O)Nc2cn3nc(-c4cnn(CCO)c4)ccc3n2)cc1` [Example 178, 4-tert-butyl-N-{6-[1-(2-hydroxyethyl)-1H-pyrazol-4-yl]imidazo[1,2-b]pyridazin-2-yl}benzamide], the melting point is 226 to 229 °C.

In turn, `Cc1cccc2nc(NC(=O)c3ccc(C(C)(C)C(=O)O)cc3)cn12` [Example 186, 2-methyl-2-{4-[(5-methylimidazo[1,2-a]pyridin-2-yl)carbamoyl]phenyl}propanoic acid] gave a melting point of 282 to 283 °C.
